{"source": "patent US10780094B2", "about": "“Use of carbonic anhydrase inhibitors for treatment of neurological and psychiatric disorders” (New York University, priority 2016, dated 2020)", "test_system": "SH-SY5Y and D3 cells", "assay": "Aβ-induced cell death pathways (caspase 3 and 9 activation, CytC release, apoptosis)", "type": "cell-based, human", "protocol": "SH-SY5Y and D3 cells were plated on 15 mm optical borosilicate poly-L-lysine-coated sterile glass covers (ThermoFisher, Waltham, Mass., US) at a 70% confluence. After 24 hours, cells were treated with the peptides, the drugs or the different combinations of both of them, rinsed in PBS 1×, and fixed with 4% paraformaldehyde for 20 minutes. After that, the coverslips were washed once for 5 minute with PBS 1×, room temperature and twice for 5 minutes with cold PBS 1×. Cells were then permeabilized and blocked for 1 h with BSA 20 mg/mL+Triton 0.3% on PBS and incubated with the anti-active caspase-3 antibody, on PBS containing BSA 5 mg/mL, for 2 h. Next, cells were washed three times for 5 min each with PBS 1× and incubated with the secondary antibody (Alexa Fluor 488 anti-mouse antibody), at a 1:200 dilution in PBS containing BSA 5 mg/mL for an additional hour in the dark. Cells were then washed three times in the dark with 1 mL of PBS 1× and mounted on cover slips (ThermoFisher, Waltham, Mass., US). After mounting, cells were imaged, using a Nikon Eclipse Ti inverted microscope with a 20× objective (Nikon, Chiyoda. Tokyo, Japan).\nCells were plated at a confluence of 10.000 cells per well in 96-wells microplate luminescence microtiter (ThermoFisher, Waltham, Mass., US). The day after, cells were treated with the peptides and/or drugs for the experimental times. After that, caspase-Glo 9 assay was performed, following the protocol provided from the manufacturer. Luminescence was measured using a FlexStation 3 Multi-Mode Microplate Reader (Molecular devices, Sunnyvalem Calif., US).\n20.000 cells per well were plated on 24-wells plates. The day after, cells were treated with peptides and/or drugs, following the experimental conditions.", "data": [{"smiles": "CC(=O)Nc1nnc(S(N)(=O)=O)s1", "note": "[ATZ, acetazolamide]", "values": [{"measurement": "caspase activation and CytC release induced by Aβ", "setting": "ATZ", "result": "completely reverting"}, {"measurement": "effective concentration lower than that of MTZ", "setting": "ATZ versus MTZ", "result": 10, "unit": "times"}, {"measurement": "nuclear chromatin condensation indicative of apoptosis", "setting": "Aβ challenge, FIGS. 16A-16B", "result": "prevented"}]}]}
